Where two headings read alike, the source gives them in different places. Values belong to the compound of their own block, whether it stands above or below them. Where a SMILES comes first, the peptide text is derived from it. [ ]: non-standard residue; d: D form. pT = C[C@@H](OP(=O)(O)O)[C@H](N)C(=O)O
What was measured:
Mad1^CTD = settings: ref Ji et al, 2017b, Zhang et al, cited from earlier work
Text: Formation of the Bub1‐Mad1 complex at kinetochores is dependent on phosphorylation of Bub1, a targeting mechanism conserved from yeast to humans (Heinrich et al, [2014]; London & Biggins, [2014a]; Silió et al, [2015]). In S. cerevisiae, phosphorylation of Bub1 at Thr453 and Thr455 by Mps1 promotes an interaction with Mad1^CTD, with pThr455 alone being sufficient for this interaction (London & Biggins, [2014a]; Ji et al, [2017b]). […] This is explained by our structure because a bulky phosphate at Thr464 would clash with the Bub1^CD1 binding interface of Mad1. Therefore, phosphorylation at Thr464 could provide a means to negatively regulate the Bub1‐Mad1 interaction in response to checkpoint signals ... || (+ 1 further places)

Peptide solubility = assay type: physicochemical; settings: 20 mM Hepes, pH 7.5, 100 mM NaCl, 1 mM TCEP, without DMSO
Experimental: Our ITC and sedimentation equilibrium experiments to measure the stoichiometry of the Mad1^CTD‐Bub1^CD1 interaction were performed with concentrations of Mad1 at 100 µM or lower, and titrating Bub1 until a twofold‐fourfold molar excess was obtained. However, our ^31P NMR experiments were conducted with around 0.25 to 0.5 mM of each, and still only one binding event was detected. […] DMSO interfered with ITC enthalpy changes and the NMR signal from DMSO obscured the protein peaks. In contrast, our Mad1^CTD‐Bub1^CD1 crystal structure was obtained through co‐crystallization of Mad1^CTD at a final concentration of 0.35 mM and Bub1^CD1 at 2.5 mM in 5% DMSO. The use of millimolar concentrations of peptide, and the presence of DMSO and isopropanol, required for Mad1^CTD‐Bub1^CD1 crystallization, may explain the association of a second peptide in the crystallized complex. […]
which are affected are already mapped out in Fig 5B, and this can be tracked across Bub1CD1 […]
We thank the reviewer for their positive and constructive comments.
1) On page 2, the first line of the third paragraph, Msp1 should be Mps1.
Response: Thank you, we have corrected this error.
2) Please provide a figure to show the omit map (2Fo−Fc map) for the BUB1 CD1 peptide.
Response: We have created a 2Fo-Fc omit map and included it in Fig EV2D and updated the figure legend accordingly. […]
2) p. 5, near bottom. The authors state that the singly phosphorylated Bub1 peptide (on Thr-461) is less soluble than the double phosphorylated peptide (also phosphorylated on Ser-459), which may explain previous reports that P-Ser-459 contributes to binding Mad1-CTD. It would be helpful if the authors could quantify this reduced solubility.
Response: We realise that our comment on the reduced solubility of the singly phosphorylated pT461 peptide is likely confusing, so we have removed this comment.
In terms of quantifying the reduced solubility, we observed an approximately 2-fold reduction of the solubility of the singly phosphorylated peptide. […]

[1] = target: T1, human Mad1^CTD (WT) homodimer (Homo sapiens, UniProt Q9Y6D9); experiment: ITC of Bub1^CD1 peptides binding to wild-type Mad1^CTD; settings: N‐terminal tryptophan peptide
T1 construct: human Mad1^CTD homodimer (residues 597–718); double Strep His6-tag with TEV site (N, cleaved yes); made in house; host or cells: E. coli Rosetta 2 (DE3)
T1 sequence (Q9Y6D9 597-718): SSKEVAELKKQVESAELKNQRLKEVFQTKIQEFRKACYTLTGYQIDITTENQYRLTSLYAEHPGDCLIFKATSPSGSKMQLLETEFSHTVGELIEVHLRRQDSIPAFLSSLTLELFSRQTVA
Text: The coding region of Mad1^597–719 was cloned by USER® (NEB) into a modified pRSFDuet‐1 vector (71341‐3, Sigma‐Aldrich) with an N‐terminal double Strep His6‐tag, followed by a tobacco etch virus (TEV) protease cleavage site (Demple & Linn, [1982]; Bitinaite et al, [1992]). Mad1 mutants were generated using the QuikChange™ Lightning Site‐Directed Mutagenesis Kit (Agilent), developed by Stratagene Inc. (La Jolla, CA) (Nøhr & Kristiansen, [2003]). Mad1 constructs were transformed into Rosetta™ 2 (DE3) Singles™ Competent Cells (71400, Novagen) for expression. Expression was induced with 0.5 mM IPTG and grown overnight at 18°C. Cells were lysed in 25 mM HEPES pH 8.1, 250 mM NaCl, 2 mM DTT, 5% glycerol, 2 mM EDTA supplemented with lysozyme, and Complete™ EDTA‐free protease inhibitors (Roche). Proteins were purified over a Strep‐Tactin Superflow Plus column (QIAGEN) and cleaved with TEV protease overnight at 4°C. The cleaved Mad1^CTD was then diluted to 50 mM NaCl, purified over an anion exchange (Resource Q, GE Healthcare) column, followed by size exclusion chromatography using a Superdex 75 Increase column (GE Healthcare). Mad1^CTD was concentrated to 35 mg/ml in a buffer of 20 mM HEPES pH 7.5, 100 mM NaCl and 1 mM TCEP.
Bub1^CD1 peptides were ordered from Designer Bioscience UK, at 95% purity. The full peptide sequence used in this study was (W)KVQP{pS}P{pT}VHTKEALGFIMNMFQAPTS. (W) = peptide with an additional N‐terminal tryptophan was used to confirm peptide concentration in stoichiometry studies.
Isothermal titration calorimetry (ITC) was performed using an Auto‐iTC200 instrument (Malvern Instruments, Malvern, UK) at 20°C. Mad1^CTD and Bub1^CD1 peptide mutants were dialysed into 20 mM HEPES pH 7.5, 100 mM NaCl, 1 mM TCEP. For each titration between 30–100 µM of Mad1 was pipetted into the calorimeter cell. The Bub1^CD1 peptides at 0.3–1.5 mM were titrated into the cell consisting of one 0.5 µl injection followed by 19 injections of 2 µl each. The changes in the heat released were integrated over the entire titration and fitted to a single‐site binding model using the MicroCal PEAQ‐ITC Analysis Software 1.0.0.1258 (Malvern Instruments). Titrations were performed in triplicate. Calculations for stoichiometry were based on the molar concentrations of dimeric Mad1^CTD.

Mad1CTD = experiment: Mad1-Cdc20 interaction; assay type: binding
Text: Response: Thank you for pointing out this paper. We have now mentioned this observation in the text: bottom of page 10.
2-1) Have the authors analyzed if Mad1 can bind directly to Cdc20 and is this influenced by Bub1 CD1 as proposed in Ji et al 2017? This would have important implications for understanding SAC signaling also in light of the two recent Science papers on this topic.
Response: We have not carefully analysed the Mad1-Cdc20 interaction. We have replicated […]
blotting) to Mad1CTD (data not shown).
2-2) The authors are focused on the model that Bub1 positions Cdc20 close to Mad1 but this model is not consistently supported by the literature (see for example: Di Fiore Dev Cell 2016 where a Cdc20 mutant unable to bind ABBA motifs still loads Mad2 and Zhang et al 2019, PMID: 30782962 where Bub1 without an ABBA motif still supports a robust […]
Response: Thank you for pointing this out. We agree that we predominately focused on the model that the Bub1 ABBA/KEN motifs position Cdc20 close to Mad1, and that we should have stated more clearly that this model is still debated.
Two changes to the text were made:
1) In the Introduction (page 2) where we had previously already discussed how this model is debated, we added the (Zhang et al, 2019) reference. […]
4) In figure 5A could the authors indicates the peaks they want the readers to focus on that are also discussed in the text. […]

reduction of solubility versus doubly phosphorylated peptide (Peptide solubility): approximately 2 fold
solubility (Peptide solubility): about 0.7 mM
Compound: CC[C@H](C)[C@H](NC(=O)[C@H](Cc1ccccc1)NC(=O)CNC(=O)[C@H](CC(C)C)NC(=O)[C@H](C)NC(=O)[C@H](CCC(=O)O)NC(=O)[C@H](CCCCN)NC(=O)[C@@H](NC(=O)[C@H](Cc1c[nH]cn1)NC(=O)[C@@H](NC(=O)[C@@H](NC(=O)[C@@H]1CCCN1C(=O)[C@H](CO)NC(=O)[C@@H]1CCCN1C(=O)[C@H](CCC(N)=O)NC(=O)[C@@H](NC(=O)[C@@H](N)CCCCN)C(C)C)[C@@H](C)OP(=O)(O)O)C(C)C)[C@@H](C)O)C(=O)N[C@@H](CCSC)C(=O)N[C@@H](CC(N)=O)C(=O)N[C@@H](CCSC)C(=O)N[C@@H](Cc1ccccc1)C(=O)N[C@@H](CCC(N)=O)C(=O)N[C@@H](C)C(=O)N1CCC[C@H]1C(=O)N[C@H](C(=O)N[C@@H](CO)C(=O)O)[C@@H](C)O [SpT* CD1] (H-KVQPSP[pT]VHTKEALGFIMNMFQAPTS-OH; N-terminus and C-terminus assumed)
Mad1 binding reported previously, in words (Mad1^CTD; listed as pThr461): sufficient to promote a strong Bub1‐Mad1 interaction
Mad1 binding reported previously, in words (Mad1^CTD; listed as singly phosphorylated pThr461 peptide): significant reduction in binding

KD and stoichiometry compared with peptide lacking N-terminal Trp [1]: The same KD and stoichiometry
Compound: (W)KVQP{pS}P{pT}VHTKEALGFIMNMFQAPTS [peptide with an additional N‐terminal tryptophan was used to confirm peptide concentration in stoichiometry studies]

Compound: phosphorylated Bub1-Bub3: phosphorylated Bub1-Bub3 complex
effect on the Mad1-Cdc20 interaction, in words (Mad1CTD): does not detectably enhance the Mad1-Cdc20 interaction
